From PMC8041284, “Tunable Methacrylamides for Covalent Ligand Directed Release Chemistry” (Journal of the American Chemical Society, 2021)

molecular target: BTK (Homo sapiens, UniProt Q06187); experiment: biochemical; details: read-out: BTK inhibition (%)
Sequence (Q06187 402-655 limits assumed): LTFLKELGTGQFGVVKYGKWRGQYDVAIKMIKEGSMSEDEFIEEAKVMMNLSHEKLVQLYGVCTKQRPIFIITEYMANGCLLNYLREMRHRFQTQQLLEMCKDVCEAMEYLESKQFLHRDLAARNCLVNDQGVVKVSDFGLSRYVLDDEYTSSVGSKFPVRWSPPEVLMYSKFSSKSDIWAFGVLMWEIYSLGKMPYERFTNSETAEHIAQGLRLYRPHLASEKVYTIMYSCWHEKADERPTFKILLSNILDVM

Row | Structure (SMILES) | inhibition at 10 µM
1 | Cc1cccc(C)c1NC1=NCCCS1 [PCM-0064906] | -21.8%
2 | OC(c1ccccc1)(c1ccccc1)C1CCNCC1 [PCM-0085781] | -14%
3 | COc1cc(OC)c(OC)cc1C=O [PCM-0091340] | -12.4%

same assay, conditions: read-out: BTK inhibition (%), 0.75 uM BTK, […] probe 3l, 15 min preincubation

Row | Structure (SMILES) | inhibition at 10 µM
4 | Cc1cc(N=Nc2ccc(S(=O)(=O)Nc3ccccn3)cc2)c(N)cc1O [PCM-0215414] | 76.4%
5 | COc1cc(N2CCC(N)CC2)ccc1Nc1ncc(Cl)c(-c2c[nH]c3ccccc23)n1 [PCM-0215211] | 95.9%
6 | CCc1c2c(nc3ccc(O)cc13)-c1cc3c(c(=O)n1C2)COC(=O)[C@]3(O)CC [PCM-0091516] | -28.8%
7 | Cc1cc(S(=O)(=O)O)c2c(C)ccc(C(C)C)cc1-2 [PCM-0216127] | 37.2%
8 | CC(=O)Oc1ccccc1C(=O)Nc1ncc([N+](=O)[O-])s1 [PCM-0090347] | 17.9%
9 | O=[N+]([O-])c1ccc(Sc2cccc[n+]2[O-])c2nonc12 [PCM-0215705] | 73.4%
10 | Cc1ccc2nc(NC(=O)CSc3nc4c(c(=O)n3-c3ccccc3)SCC4)sc2c1 [PCM-0215324] | 10.2%
11 | CC(C(=O)O)c1ccc2c(c1)Cc1cccnc1O2 (stereo not shown) [PCM-0086477] | -11.7%
12 | COc1ccc2c(c1)=C(CC(=O)N1CCOCC1)C(C)(C(=O)c1ccc(Cl)cc1)N=2 (stereo not shown) [PCM-0095476] | -2.3%
13 | CC1=C(/C=C/C(C)=C/C=C/C(C)=C\C(=O)O)C(C)(C)CCC1 [PCM-0065511] | -42.1%
14 | NS(=O)(=O)Cc1noc2ccccc12 [PCM-0214625] | -14.8%
15 | Cc1ccc2c(c1)C(=O)[C@]1(O)CCN(c3ccccc3)C1=N2 [PCM-0095585] | -6.9%
16 | CCCNC(=O)c1cn2ncnc(Nc3cc(C(=O)NC4CC4)ccc3C)c2c1C [PCM-0215631] | -13.8%
17 | Cc1cc(C(=O)NOCCO)c(Nc2ccc(I)cc2F)n(C)c1=O [PCM-0095312] | 2.1%
18 | CC(COc1ccccc1Cc1ccccc1)N1CCCCC1 (stereo not shown) [PCM-0216136] | -17%
19 | Cc1cc(O)c(C(=O)CCC(C)C)c(=O)o1 [PCM-0216387] | 5.4%
20 | O=c1[nH]c2ccccc2n1C1CCN(Cc2ccc(-c3[nH]c4cc5ncnc5cc4nc3-c3ccccc3)cc2)CC1 [PCM-0215535] | 18.6%
21 | Cc1cc(N2CCOCC2)cc2[nH]c(-c3c(NC[C@@H](O)c4cccc(Cl)c4)cc[nH]c3=O)nc12 [PCM-0214699] | 109%
22 | NC(=O)c1ccc[n+]([C@@H]2O[C@H](COP(=O)([O-])O)[C@@H](O)[C@H]2O)c1 [PCM-0216232] | -6.8%
23 | Cn1c2ccccc2c2c3c(c4c5ccccc5n(CCC#N)c4c21)CNC3=O [PCM-0215344] | 5.5%
24 | COc1cc(-c2oc3cc(O)cc(O)c3c(=O)c2O)ccc1O [PCM-0216402] | 73.4%
25 | CN1CC(=O)N2[C@H](c3ccc4c(c3)OCO4)c3[nH]c4ccccc4c3C[C@@H]2C1=O [PCM-0214630] | -6.2%
26 | NC(CO)C(=O)O (stereo not shown) [PCM-0216194] | 1.7%
27 | C[C@H]1[C@H](C)CC[C@]2(C(=O)O)CC[C@]3(C)C(=CC[C@@H]4[C@@]5(C)CCC(=O)C(C)(C)[C@@H]5CC[C@]43C)[C@H]12 [PCM-0215048] | 7%
28 | Cc1ccc(-c2c(-c3nn(C)c4ncnc(N5CC[C@H](N6CCCCC6)C5)c34)cnn2C)cc1 [PCM-0095421] | -2.3%

Row | Structure (SMILES) | inhibition at 10 µM
29 | CCN(CC)C(=O)[C@]1(c2ccccc2)C[C@@H]1CN [PCM-0095594] | 0.8%
30 | CC(C)Oc1ccc2c(=O)c(-c3ccccc3)coc2c1 [PCM-0094837] | 17.9%
31 | COCCNC(=O)Nc1ccc2nc(-c3cccs3)c(-c3cccs3)nc2c1 [PCM-0215879] | 6.9%
32 | O=C1O[C@H]([C@@H](O)CO)C(O)=C1OP(=O)(O)O [PCM-0215970] | -4.3%
33 | CC[C@H](C)n1cc(C)c2c(C(=O)NCc3c(C)cc(C)[nH]c3=O)cc(-c3ccc(N4CCNCC4)nc3)cc21 [PCM-0215444] | -2.6%
34 | CCc1nc(C(N)=O)c(Nc2ccc(N3CCC(N4CCN(C)CC4)CC3)c(OC)c2)nc1NC1CCOCC1 [PCM-0215866] | 73.8%
35 | C=CCc1cc(OC)c(OC)c(OC)c1 [PCM-0215912] | 3.1%
36 | CCn1c(=O)c(-c2ccc(Cl)cc2Cl)cc2cnc(Nc3ccc(N4CCNCC4)c(F)c3)nc21 [PCM-0215684] | 87.6%
37 | Cc1nc2n(c(=O)c1CCN1CCC(c3noc4cc(F)ccc34)CC1)CCCC2 [PCM-0086311] | 1.7%
38 | CC(=O)N[C@@H]1[C@@H](O[C@@H]2O[C@H](C(=O)O)[C@@H](O)[C@H](O)[C@H]2O)[C@@H](O)[C@@H](OS(=O)(=O)O)O[C@H]1O [PCM-0215884] | -22.1%
39 | CCn1cc(C(=O)O)c(=O)c2c(N)c(F)c(NC3CCCCC3)cc21 [PCM-0215625] | 5.4%
40 | O=C(NCCCn1ccnc1)c1cc(-c2ccco2)on1 [PCM-0215720] | -9.3%
41 | CO[C@H]1/C=C/O[C@@]2(C)Oc3c(C)c(O)c4c(O)c(c5c(nc6cc(C)ccn65)c4c3C2=O)NC(=O)/C(C)=C\C=C\[C@H](C)[C@H](O)[C@@H](C)[C@@H](O)[C@@H](C)[C@H](OC(C)=O)[C@@H]1C [PCM-0086183] | 10.1%
42 | Cc1[nH]c2ccccc2c1CCNCc1ccc(/C=C/C(=O)NO)cc1 [PCM-0095679] | 0.8%
43 | c1cncc(CN2CCC(n3ncc4c(N5CCOCC5)nc(-c5ccc6[nH]ccc6c5)nc43)CC2)c1 [PCM-0095384] | -27.6%
44 | Cc1cccc(Nc2nc(N[C@@H]3CCCC[C@@H]3N)ncc2C(N)=O)c1 [PCM-0215814] | 82.8%
45 | CN[C@@H](C)C(=O)N[C@H]1CN(C(=O)CC(C)C)CC[C@H]2CC[C@@H](C(=O)NC(c3ccccc3)c3ccccc3)N2C1=O [PCM-0214841] | -9.3%
46 | Nc1c(CC(=O)O)cccc1C(=O)c1ccc(Br)cc1 [PCM-0214777] | -47.6%
47 | Cc1ccc(NS(=O)(=O)c2ccc3c(c2)C2C=CCC2C(c2ccc(C(=O)O)cc2)N3)cc1C (stereo not shown) [PCM-0215738] | 92.7%
48 | CCOC(=O)/C=C/c1ccc(OC)cc1 [PCM-0216286] | -3.1%
49 | CC#C[C@]1(O)CC[C@H]2[C@@H]3CCC4=CC(=O)CCC4=C3[C@@H](c3ccc(N(C)C)cc3)C[C@@]21C [PCM-0064713] | 38.6%
50 | COc1ccc(S(=O)(=O)Nc2cc(-c3c(O)ccc4ccccc34)c(O)c3ccccc23)cc1 [PCM-0215905] | 86.5%
51 | CC(=O)OCC(CCn1cnc2cnc(N)nc21)COC(C)=O [PCM-0065613] | -20.2%
52 | C[C@H](C[C@H](O)[C@H]1OC1(C)C)C1=C2C[C@H](O)[C@H]3[C@@]4(C)CCC(=O)C(C)(C)[C@@H]4CC[C@]3(C)[C@@]2(C)CC1 [PCM-0216518] | -24.7%
53 | Cc1cnc(C(=O)NCCc2ccc(S(=O)(=O)NC(=O)NC3CCCCC3)cc2)cn1 [PCM-0065278] | 13.2%

Row | Structure (SMILES) | inhibition at 10 µM
54 | Cc1cc(=O)oc2c([N+](=O)[O-])c(O)ccc12 [PCM-0216627] | 13.1%
55 | Cc1cc(=O)oc2cc(O)ccc12 [PCM-0011565] | -2.3%
56 | COc1cc(O)c(C(=O)/C=C/c2ccccc2)c(OC)c1 [PCM-0216315] | 6.9%
57 | CN(C)C/C=C/C(=O)Nc1ccc(C(=O)Nc2cccc(Nc3ncc(Cl)c(-c4c[nH]c5ccccc45)n3)c2)cc1 [PCM-0213464] | 117%
58 | OC1OC[C@@H](O)[C@@H](O)[C@@H]1O (stereo partly shown) [PCM-0215980] | 10.8%
59 | O=c1cc(N2CCOCC2)oc2c(-c3ccc4c(c3)OCCO4)csc12 [PCM-0215845] | 23.4%
60 | CC(=O)O[C@H]1CC[C@H]2[C@@H]3CCc4cc(O)ccc4[C@H]3CC[C@]12C [PCM-0216021] | 3.1%
61 | O=C(O)c1cccnc1 [PCM-0086368] | 3.1%
62 | C[C@@H](Oc1ccc2[nH]nc(/C=C/c3cnn(CCO)c3)c2c1)c1c(Cl)cncc1Cl [PCM-0215376] | 101%
63 | CCN(CC)c1ccc2cc(-c3nc4ccccc4s3)c(=O)oc2c1 [PCM-0215963] | -5.1%
64 | CC(O)[C@H](C)[C@H](N)C(=O)O (stereo partly shown) [PCM-0216361] | -2.6%
65 | Cn1cc(C(=O)Nc2ccc3c(c2)OCCO3)c2ccccc2c1=O [PCM-0215752] | 6.9%
66 | CC(C)(O)CNc1nc(Nc2ccnc(C(F)(F)F)c2)nc(-c2cccc(C(F)(F)F)n2)n1 [PCM-0215637] | 19.3%
67 | CC(=O)O[C@H]1C[C@H](O[C@H]2[C@@H](O)C[C@H](O[C@H]3[C@@H](O)C[C@H](O[C@H]4CC[C@@]5(C)[C@H](CC[C@@H]6[C@@H]5C[C@@H](O)[C@]5(C)[C@@H](C7=CC(=O)OC7)CC[C@]65O)C4)O[C@@H]3C)O[C@@H]2C)O[C@H](C)[C@H]1O[C@@H]1O[C@H](CO)[C@@H](O)[C@H](O)[C@H]1O [PCM-0216197] | -4.6%
68 | CS(=O)(=O)N1CCc2c(-c3cnc(N)nc3)nc(N3CCOCC3)nc21 [PCM-0095409] | -5.5%
69 | Oc1ccc(Cc2nc3c(Cc4ccccc4)nc(-c4ccc(O)cc4)cn3c2O)cc1 [PCM-0215560] | 91.1%
70 | C[C@@H]1CC[C@@]2(NC1)O[C@H]1C[C@H]3[C@@H]4CC=C5C[C@@H](O[C@@H]6O[C@H](CO)[C@@H](O[C@@H]7O[C@@H](C)[C@H](O)[C@@H](O)[C@H]7O)[C@H](O)[C@H]6O[C@@H]6O[C@@H](C)[C@H](O)[C@@H](O)[C@H]6O)CC[C@]5(C)[C@H]4CC[C@]3(C)[C@H]1[C@@H]2C [PCM-0216423] | 17.8%
71 | CNC(=O)c1cc(Oc2ccc(NC(=O)Nc3ccc(Cl)c(C(F)(F)F)c3)c(F)c2)ccn1 [PCM-0095050] | 13.1%
72 | O=c1cc(N2CCOCC2)oc2c(-c3cccc4c3sc3ccccc34)cccc12 [PCM-0095522] | -13.6%
73 | CC(C)=CC(=O)O[C@H]1Cc2cc3ccc(=O)oc3cc2OC1(C)C [PCM-0216507] | 16.2%
74 | N#C/C=C1/C=C[C@@H](O)[C@H](O)[C@H]1O[C@@H]1O[C@H](CO)[C@@H](O)[C@H](O)[C@H]1O [PCM-0216369] | -11.6%
75 | CN[C@H]1CC[C@@H](c2ccc(Cl)c(Cl)c2)c2ccccc21 [PCM-0064965] | -19.5%
76 | O=C(N/N=C/c1cc(O)c(O)cc1O)c1cc2ccccc2cc1O [PCM-0215496] | 77.2%
